Results on 21 compounds are retold here after patent publication US5760065A, “Anti-HIV agent” (priority 1994, dated 1998).

The structures appear in SMILES notation.

The conditions of data set [1]: literature, qualitative; cited from earlier work.
The conditions of data set [2]: literature, qualitative; cited from earlier work. The source holds these as a separate data set.
The next data set relates to HIV (type IIIB). The data set can be described thus: HIV proliferation inhibitory activity: HIV budding from infected U937 cells, evaluated by reverse transcriptase activity. As to conditions: 15 min with compound, then 6 h culture. The class given is cell-based. How it is done: (§1) U937 cells (derived from human lymphocytes) infected with HIV (type IIIB) were cultured in RPMI-1640 medium (Biocell Laboratories) containing Test Compound (I) and 10% fetal bovine serum (FBS) at 37° C. for 15 minutes in a CO2 -incubator. The cultured U937 cells were washed with RPMI-1640 medium and then cultured in RPMI-1640 medium containing 10% FBS at 37° C. for 6 hours in the CO2 -incubator. The degree of inhibition of HIV budding by the test compound was evaluated by the reverse transcriptase activity in a unit culture. Cytotoxicity test was carried out by the MTT method [J. Immunol. Method., 65, 55 (1983)].

The next data set can be described thus: in vitro. The class given is cell-based. To be noted: human, u937 cells, MTT method. The procedure:
as §1

The subject of a further data set is actin. To be noted: 67th Annual Meeting of the Japanese Pharmacological Society (1994); cited from earlier work.
Another data set deals with smooth muscle. As to conditions: 113th Meeting of the Japanese Society of Veterinary Science (1992); cited from earlier work.
The test system of another data set is platelet. To be noted: 67th Annual Meeting of the Japanese Pharmacological Society (1994); cited from earlier work.
For data set [3] the following is noted: literature, qualitative; cited from earlier work. The source holds these as a separate data set.

Consider `COC(CC1OC(=O)CC(OC(N)=O)CCCC(O)C(C)C(OC)c2coc(n2)-c2coc(n2)-c2coc(n2)/C=C/CC(O)C1C)C(C)CCC(=O)C(C)C(OC)C(C)/C=C/N(C)C=O` (centres unmarked) [Kabiramide B], for which the cytotoxicity entry in data set [1] is given as “have cytotoxicity”.
On to `COC(CC1OC(=O)CC(O)CC=CC(=O)C(C)C(OC)c2coc(n2)-c2coc(n2)-c2coc(n2)/C=C/CCC1C)C(C)CCC(=O)C(C)C(C/C=C/N(C)C=O)OC` (centres unmarked) [Isohalichondramide], for which, in data set [2], the antifungal activity entry is recorded as “antifungal activity”. Besides, the cytotoxicity entry in data set [1] was “have cytotoxicity”.
For `COC(CC1OC(=O)CC(O)CC=CC(=O)C(C)C(OC)c2coc(n2)-c2coc(n2)C(=O)NC(=O)/C=C/CCC1C)C(C)CCC(=O)C(C)C(C/C=C/N(C)C=O)OC` (centres unmarked) [Isohalichondramide (imide form)], the antifungal activity result in data set [2] is recorded as “antifungal activity”. Also, the cytotoxicity entry in data set [1] was “have cytotoxicity”.
In the case of `COC(CC1OC(=O)CC(O)CCCC(O)C(C)C(OC)c2coc(n2)-c2coc(n2)-c2coc(n2)/C=C/CCC1C)C(C)CCC(=O)C(C)C(OC)C(C)/C=C/N(C)C=O` (centres unmarked) [Tetrahydrohalichondramide], in data set [2], the antifungal activity entry is on record as “antifungal activity”. Besides, the cytotoxicity result in data set [1] is reported as “has cytotoxicity”.
Regarding `COC(CC1OC(=O)CC(O)CC(O)CC(=O)C(C)C(OC)c2coc(n2)-c2coc(n2)-c2coc(n2)/C=C/CCC1C)C(C)CCC(=O)C(C)C(C/C=C/N(C)C=O)OC` (centres unmarked) [Jaspisamide A], the cytotoxicity result in data set [1] is recorded as “have cytotoxicity”.
`COC(CC1OC(=O)CC(O)CCCC(=O)C(C)C(OC)c2coc(n2)-c2coc(n2)-c2coc(n2)/C=C/CCC1C)C(C)CCC(=O)C(C)C(C/C=C/N(C)C=O)OC` (centres unmarked) [Dihydrohalichondramide]: the antifungal activity result in data set [2] is on record as “antifungal activity”. Also, the cytotoxicity result in data set [1] was “have cytotoxicity”.
Regarding `COC(CC1OC(=O)CC(O)CCCC(O)C(C)C(OC)c2coc(n2)-c2coc(n2)-c2coc(n2)/C=C/CC(OC)C1C)C(C)CCC(=O)C(C)C(OC)C(C)/C=C/N(C)C=O` (centres unmarked) [Kabiramide D], the cytotoxicity result in data set [1] is on record as “have cytotoxicity”.
In the case of `COC(C)C(=O)OC(CCC(C)C(CC1OC(=O)CC(O)C/C=C/C(=O)C(C)C(OC)c2coc(n2)-c2coc(n2)-c2coc(n2)/C=C/CC(OC)C1C)OC)C(C)C(OC(C)=O)C(C)/C=C/N(C)C=O` (centres unmarked) [Mycalolide C], the antifungal activity entry in data set [2] is given as “antifungal activity”. Besides, in data set [1], the cytotoxicity result is given as “have cytotoxicity”.
Consider `COC(CC1OC(=O)CC(O)CCCC(=O)C(C)C(OC)c2coc(n2)-c2coc(n2)-c2coc(n2)/C=C/CCC1C)C(C)CCC(=O)C(C)C(OC)C(C)/C=C/N(C)C=O` (centres unmarked) [33-Methyldihydrohalichondramide], for which the cytotoxicity entry in data set [1] is listed as “have cytotoxicity”.
For `COC(=O)/C=C/CCC(C)C(CC(OC)C(C)CCC(=O)C(C)C(C/C=C/N(C)C=O)OC)OC(=O)CC(O)CC=CC(=O)C(C)C(OC)c1coc(-c2coc(C(N)=O)n2)n1` (centres unmarked) [Isohalichondramide (ester form)], in data set [2], the antifungal activity entry is recorded as “antifungal activity”. Besides, the cytotoxicity entry in data set [1] was “have cytotoxicity”.
For the compound `COC(CC1OC(=O)CC(O)C/C=C/C(=O)C(C)C(OC)c2coc(n2)-c2coc(n2)-c2coc(n2)/C=C/CC(O)C1C)C(C)CCC(=O)C(C)C(C/C=C/N(C)C=O)OC` (centres unmarked) [Jaspisamide B], the cytotoxicity entry in data set [1] was “have cytotoxicity”.
In the case of `COC(CC1OC(=O)CC(OC(N)=O)CCCC(O)C(CO)C(OC)c2coc(n2)-c2coc(n2)-c2coc(n2)/C=C/CC(OC)C1C)C(C)CCC(=O)C(C)C(OC)C(C)/C=C/N(C)C=O` (centres unmarked) [Kabiramide A], the cytotoxicity result in data set [1] is “have cytotoxicity”.
As to `COCC(OC)C(=O)OC(CCC(C)C(CC1OC(=O)CC(O)C/C=C/C(=O)C(C)C(OC)c2coc(n2)-c2coc(n2)-c2coc(n2)/C=C/CC(OC)C1C)OC)C(C)C(OC(C)=O)C(C)/C=C/N(C)C=O` (centres unmarked) [Mycalolide B], in data set [2], the antifungal activity entry was “antifungal activity”. For the same compound, the inhibition at 0.1 µM with HIV (type IIIB) (Human immunodeficiency virus 1, U-937, 10^-7 M) is 71.4%. The inhibition at 0.01 µM in the data set on HIV (type IIIB) (Human immunodeficiency virus 1, U-937, 10^-8 M) amounted to 57.1%. In addition, in the data set on HIV (type IIIB) (Human immunodeficiency virus 1, U-937, 10^-9 M), the inhibition at 0.001 µM amounted to 28.6%. For the same compound, in the data set with HIV (type IIIB) (Human immunodeficiency virus 1, U-937, 10^-10 M), the inhibition at 0.0001 µM was found to be 14.3%. Also, the cytotoxicity result in data set [1] is given as “have cytotoxicity”. The cytotoxicity at 0.1 µM in the data set “in vitro” (10^-7 M) was 4.3%. Besides, the cytotoxicity at 0.01 µM in the data set “in vitro” (10^-8 M) came out at 2.2%. This compound also showed a cytotoxicity at 0.001 µM in “in vitro” (10^-9 M) of 1.5%. In “in vitro” (10^-10 M), the cytotoxicity at 0.0001 µM was found to be 0.7%. Moreover, in the data set with actin, the “actin polymerization inhibitory activity” value is “actin polymerization inhibitory activity”. Also, the “inhibitory activity against contraction of smooth muscle” value with smooth muscle is given as “inhibitory activity against contraction of smooth muscle”. Further, the anti-platelet activity result in the data set with platelet is recorded as “anti-platelet activity”.
For the compound `COC(CC1OC(=O)CC(O)C/C=C/C(=O)C(C)C(OC)c2coc(n2)-c2coc(n2)-c2coc(n2)/C=C/CC(OC)C1C)C(C)CCC(=O)C(C)C(OC(C)=O)C(C)/C=C/N(C)C=O` (centres unmarked) [Mycalolide A], the antifungal activity entry in data set [2] is “antifungal activity”. The cytotoxicity entry in data set [1] is recorded as “have cytotoxicity”.
Regarding `COC(CC1OC(=O)CC(O)CC=CC(=O)C(C)C(OC)c2coc(n2)-c2coc(n2)-c2coc(n2)/C=C/CCC1C)C(C)CCC(=O)C(C)C(CCC(=O)O)OC` (centres unmarked) [Isohalichondramide (carboxylic acid form)], the antifungal activity entry in data set [2] is given as “antifungal activity”. Further, in data set [1], the cytotoxicity entry is “have cytotoxicity”.
On to `COC(CC1OC(=O)CC(O)C/C=C/C(=O)C(C)C(OC)c2coc(n2)-c2coc(n2)-c2coc(n2)/C=C/CCC1C)C(C)CCC(=O)C(C)C(C/C=C/N(C)C=O)OC` (centres unmarked) [Halichondramide], for which, in data set [2], the antifungal activity result is “antifungal activity”. Besides, the cytotoxicity result in data set [1] was “have cytotoxicity”.
With `COC(CC1OC(=O)CC(OC(C)=O)CCCC(O)C(C)C(OC)c2coc(n2)-c2coc(n2)-c2coc(n2)/C=C/CC(OC)C1C)C(C)CCC(=O)C(C)C(OC)C(C)/C=C/N(C)C=O` (centres unmarked) [Kabiramide E], the cytotoxicity entry in data set [1] is “have cytotoxicity”.
In the case of `COCC(OC)C(=O)OC(CCC(C)C(CC1OC(=O)CC(O)CCCC(=O)CC(C)c2coc(n2)-c2coc(n2)-c2coc(n2)/C=C/CC(OC)C1C)OC)C(C)C(OC(C)=O)C(C)/C=C/N(C)C=O` (centres unmarked) [Ulpualide B], the antibacterial activity result in data set [3] is given as “antibacterial activity”. Also, the cytotoxicity result in data set [1] is reported as “have cytotoxicity”.
In the case of `COC(CC1OC(=O)CC(O)C/C=C/C(=O)C(C)C(OC)c2coc(n2)-c2coc(n2)-c2coc(n2)/C=C/CCC1C)C(C)CCC(=O)C(C)C(OC)C(C)/C=C/N(C)C=O` (centres unmarked) [Jaspisamide C], the cytotoxicity result in data set [1] is “have cytotoxicity”.
With `COC(CC1OC(=O)CC(O)CCCC(=O)CC(C)c2coc(n2)-c2coc(n2)-c2coc(n2)/C=C/CC(OC)C1C)C(C)CCC(=O)C(C)C(OC(C)=O)C(C)/C=C/N(C)C=O` (centres unmarked) [Ulpualide A], the antibacterial activity result in data set [3] is reported as “antibacterial activity”. In addition, in data set [1], the cytotoxicity entry was “have cytotoxicity”.
In the case of `COC(CC1OC(=O)CC(OC(N)=O)CCCC(O)C(C)C(OC)c2coc(n2)-c2coc(n2)-c2coc(n2)/C=C/CC(OC)C1C)C(C)CCC(=O)C(C)C(OC)C(C)/C=C/N(C)C=O` (centres unmarked) [Kabiramide C], in data set [2], the antifungal activity entry is “has antifungal activity”.
